Reference: PMC6681416, “Novel Derivatives of Deoxycholic Acid Bearing Linear Aliphatic Diamine and Aminoalcohol Moieties and their Cyclic Analogs at the C3 Position: Synthesis and Evaluation of Their In Vitro Antitumor Potential” (Molecules, 2019)

Tests used:
[1] = tested on: panel of cultured cell lines (HuTu-80, HepG2, KB-3-1, A549, RAW264.7, hFF3); assay: MTT cytotoxicity, range over the panel of tested cell lines; type: cell-based; conditions: 24 h, summary of Table 1 (for 2–10 partly from ref [21])
Source text: (§1) According to our previous data and data published by other research groups, chemical transformations of bile acids can greatly improve their antitumor potential. Thus, as the first step of evaluation of the biological activities of our novel DCA derivatives we assessed their effects on tumor cell viability. The cytotoxicity of the compounds was investigated with respect to a panel of cultured cell lines, including human duodenal HuTu-80, hepatocellular HepG2, cervical KB-3-1 and lung A549 carcinomas as well as murine macrophage RAW264.7 and non-transformed human fibroblasts hFF3 by MTT assay.
Cells were seeded in triplicate in 96-well plates at a density of 5 × 10^3 (HuTu-80, HepG2, KB-3-1, hFF3), 10^4 (A549) or 5 × 10^4 (RAW264.7) cells per well. Cells were incubated under standard conditions for 24 h and then they were treated with varying doses of investigated derivatives for subsequent 24 h. Then 10 µL of MTT solution (5 mg/mL) were added to each wells and cells were incubated for an additional 2 h under standard conditions. The crystals of formazan forming within live cells were solubilized with DMSO and the absorbance was measured in a Multiscan RC plate reader (Thermo LabSystems, Helsinki, Finland) at a test and reference wavelengths of 570 nm and 620 nm, respectively. […]

A549 cells = assay: MTT cytotoxicity assay, A549; type: cell-based, human; conditions: for IC50: Homo sapiens, A549, MTT, 24 h, read-out: IC50 A549 (lung); for Selectivity index A549: ratio IC50 hFF3 / IC50 A549
Source text: as §1
(§2) Human duodenal carcinoma HuTu-80 cells, human hepatocellular carcinoma HepG2 cells, human cervical carcinoma KB-3-1 cells, human lung carcinoma A549 cells were obtained from the Russian Cell Culture Collection (Institute of Cytology, RAS, St. Petersburg, Russia). Non-transformed human fibroblasts hFF3 were kindly provided by Dr. Olga Koval (Institute of Chemical Biology and Fundamental Medicine, SB RAS, Novosibirsk, Russia). RAW264.7 macrophages were kindly provided by Prof. Dr. Dmitry Kuprash (Engelhardt Institute of Molecular Biology, RAS, Moscow, Russia). The cells were cultured in DMEM (Sigma-Aldrich Inc., St. Louis, MO, USA) supplemented with 10% (v/v) heat-inactivated fetal bovine serum (FBS) (BioloT, St. Petersburg, Russia), 100 U/mL penicillin (ICN Biomedicals Inc., Costa Mesa, CA, USA), 100 µg/mL streptomycin and 0.25 µg/mL amphotericin; additionally, in the case of RAW264.7 cells, concentration of glucose in the medium was increased up to 4.5 mg/mL. The cells were incubated at 37 °C in 5% CO2 and 95% air (hereafter referred to as standard conditions). DCA derivatives were dissolved in DMSO to yield stock solutions of 10 mmol/L and stored at −20 °C prior to use.
(§3) Cells were seeded in triplicate in 96-well plates at a density of 5 × 10^3 (HuTu-80, HepG2, KB-3-1, hFF3), 10^4 (A549) or 5 × 10^4 (RAW264.7) cells per well. Cells were incubated under standard conditions for 24 h and then they were treated with varying doses of investigated derivatives for subsequent 24 h. Then 10 µL of MTT solution (5 mg/mL) were added to each wells and cells were incubated for an additional 2 h under standard conditions. The crystals of formazan forming within live cells were solubilized with DMSO and the absorbance was measured in a Multiscan RC plate reader (Thermo LabSystems, Helsinki, Finland) at a test and reference wavelengths of 570 nm and 620 nm, respectively. […] To perform SAR analysis, hierarchical clustering of compounds based on their IC50 values was fulfilled with Euclidean distance by using the Morpheus tool (https://software.broadinstitute.org/morpheus/), a platform designed for visualization and analysis of data in a matrix format. Heatmap, containing compounds’ SI values, were constructed by using the Excel 2010 software (Microsoft, Redmond, WA, USA). In order to reveal whether ROS participate in the induction of cell death by compound 9, HuTu-80 cells cultured in 96-well plate were pretreated by NAC at 2 mM for 1 h. Thereafter, the medium was replaced by fresh medium with compound 9 at 8 µM and the cells were incubated with subsequent 24 h under standard conditions. After this time period, the curves of cytotoxicity of compound 9 in the presence or absence of NAC were compared.

KB-3-1 cells = assay: MTT cytotoxicity assay, KB-3-1; type: cell-based, human; conditions: for IC50: Homo sapiens, KB 3-1, MTT, 24 h, read-out: IC50 KB3-1 (cervix); for Selectivity index KB-3-1: ratio IC50 hFF3 / IC50 KB-3-1
Source text: as §1, §2, §3

HepG2 cells = assay: MTT cytotoxicity assay, HepG2; type: cell-based, human; conditions: for IC50: Homo sapiens, HepG2, MTT, 24 h, read-out: IC50 HepG2 (liver); for Selectivity index HepG-2: ratio IC50 hFF3 / IC50 HepG2
Source text: as §1, §2, §3

RAW264.7 macrophages = assay: MTT cytotoxicity assay, RAW264.7; type: cell-based, murine; conditions: for IC50: Mus musculus, RAW264.7, MTT, 24 h, read-out: IC50 RAW264.7 (macrophage); for Selectivity index RAW264: ratio IC50 hFF3 / IC50 RAW264.7
Source text: as §1, §2, §3

[2] = tested on: NO synthesis by IFNγ-activated RAW264.7 cells; assay: Inhibition of NO production by stimulated macrophages (Griess); type: cell-based, murine; conditions: Mus musculus, RAW264.7, 24 h, read-out: IC50NO
Experimental: RAW264.7 cells were seeded in triplicate in 96-well plates at a density of 5 × 10^4 cells/well and incubated under standard conditions for 24 h. The cells were treated with 20 ng/mL of murine recombinant IFNγ (GIBCO, Gaithersburg, MD, USA), with or without (control) compounds at various concentrations for 24 h. The level of NO production was evaluated by determining the nitrite concentration in culture medium with a Griess Reagent System (Promega, Madison, WI, USA). The IC50^NO value was calculated as the derivative concentration required to decrease NO production to 50% of the non-treated control.

HuTu-80 cells = assay: cells; type: cell-based; conditions: for IC50: Homo sapiens, HuTu80, MTT, 24 h, read-out: IC50 HuTu-80 (duodenum); for Selectivity index HuTu-80: ratio IC50 hFF3 / IC50 HuTu-80
Source text: as §1, §2, §3

[3] = tested on: non-transformed human fibroblasts hFF3; assay: MTT cytotoxicity assay, hFF3; type: cell-based; conditions: HFF-3, 24 h, read-out: IC50 hFF3 (fibroblast)
Source text: as §1
as §2, with “DCA derivatives were dissolved in DMSO to yield stock solutions of 10 mmol/L and stored at −20 °C prior to use.” left out
Cells were seeded in triplicate in 96-well plates at a density of 5 × 10^3 (HuTu-80, HepG2, KB-3-1, hFF3), 10^4 (A549) or 5 × 10^4 (RAW264.7) cells per well. […] The crystals of formazan forming within live cells were solubilized with DMSO and the absorbance was measured in a Multiscan RC plate reader (Thermo LabSystems, Helsinki, Finland) at a test and reference wavelengths of 570 nm and 620 nm, respectively. […]

[4] = Solubility in cell culture medium; type: physicochemical; conditions: maximal tested concentration limited by 50 µM

| Structure (SMILES) | IC50 [1] | IC50 (A549 cells) | Selectivity index A549 (A549 cells) | IC50 (KB-3-1 cells) | Selectivity index KB-3-1 (KB-3-1 cells) | IC50 (HepG2 cells) | Selectivity index HepG-2 (HepG2 cells) | IC50 (RAW264.7 macrophages) | Selectivity index RAW264 (RAW264.7 macrophages) | IC50 [2] | IC50 (HuTu-80 cells) | Selectivity index HuTu-80 (HuTu-80 cells) | IC50 [3] | solubility in cell culture medium [4] |
| --- | --- | --- | --- | --- | --- | --- | --- | --- | --- | --- | --- | --- | --- | --- |
| COC(=O)CC[C@@H](C)[C@H]1CC[C@H]2[C@@H]3CC[C@@H]4CC(O)(CNCCO)CC[C@]4(C)[C@H]3CC(=O)[C@]12C (stereo partly drawn) [Compound 8, Methyl 3-hydroxy-3-((2-hydroxyethylamino)methyl)-12-oxo-5β-cholan-24-oate] | 4.4 to 34.8 µM | 29.6 ± 2.5 µM | 1.2 | 17.7 ± 2.8 µM | 1.9 | 5.8 ± 1.3 µM | 6 | 23.4 ± 1.2 µM | 1.5 | > 10 µM | 4.4 ± 0.34 µM | 7.9 | 34.8 ± 1 µM |  |
| COC(=O)CC[C@@H](C)[C@H]1CC[C@H]2[C@@H]3CC[C@@H]4CC(O)(CN5CCOCC5)CC[C@]4(C)[C@H]3CC(=O)[C@]12C (stereo partly drawn) [Compound 10, Methyl 3-hydroxy-3-(morpholinomethyl)-12-oxo-5β-cholan-24-oate] |  | > 50 µM | 1 | 8.4 ± 0.5 µM | 5.9 | 7.5 ± 1.2 µM | 6.6 | > 50 µM | 1 | > 10 µM | 10 ± 0.3 µM | 5 | > 50 µM | poorly soluble |
